Results from ChEMBL document CHEMBL1122332, “Synthesis of esters of phosphonoformic acid and their antiherpes activity” (J Med Chem, 1983).
Calls of active or inactive are those of the source. The rule behind the calls is not given here.

Columns and labels:
[1] = tested on: Human alphaherpesvirus 1; test: Evaluated for antiviral activity against cutaneous HSV-1 C42 infections in guinea pig; Active; format: functional, organism-based
[2] = tested on: Human alphaherpesvirus 1; test: Evaluated for antiviral activity against cutaneous HSV-1 C42 infections in guinea pig; Not active; format: functional, organism-based

SMILES | Effect [1] | Effect [2]
O=C(Oc1ccccc1)P(=O)(O)Oc1ccccc1 | Active | 
COP(=O)(O)C(=O)O | Active | 
Cc1ccc(OC(=O)P(=O)(O)O)cc1 | Active | 
COc1ccc(OP(=O)(O)C(=O)O)cc1 | Active | 
Cc1ccc(OP(=O)(Oc2ccc(C)cc2)C(=O)Oc2ccccc2)cc1 | Active | 
O=C(OCC1CCCC1)P(=O)(O)O |  | inactive
Cc1ccc(OP(=O)(O)C(=O)O)cc1 | Active | 
COP(=O)(O)C(=O)OCc1ccccc1 |  | inactive
CCOP(=O)(OCC)C(=O)Oc1ccc(OC)cc1 |  | inactive
CCOP(=O)(O)C(=O)Oc1ccc(OC)cc1 | Active | 
CCOP(=O)(Oc1ccc(Cl)cc1)C(=O)Oc1ccccc1 (configuration not stated) | Active | 
CCOC(=O)P(=O)(O)Oc1ccccc1 |  | inactive
CC(C)OP(=O)(OC(C)C)C(=O)Oc1ccc([N+](=O)[O-])cc1 |  | inactive
O=C(O)P(=O)(O)Oc1ccccc1 | Active | 
COC(=O)P(=O)(OC)OC12CC3CC(CC(C3)C1)C2 (configuration not stated) |  | inactive
COc1ccc(OC(=O)P(=O)(O)O)cc1 | Active | 
O=C(Oc1ccccc1)P(=O)(O)O | Active | 
COC(=O)P(=O)(OC)Oc1ccc(C(C)=O)cc1 (configuration not stated) |  | inactive
CCOC(=O)c1ccc(OC(=O)P(=O)(OC)OC)cc1 |  | inactive

SMILES | Effect [1] | Effect [2]
O=C(Oc1ccc(Cl)c(Cl)c1)P(=O)(O)O | Active | 
CCOP(=O)(Oc1ccc(C(C)=O)cc1)C(=O)OC (configuration not stated) |  | inactive
COP(=O)(OC)C(=O)OC(C)C |  | inactive
CCCCOP(=O)(OCCCC)C(=O)OC |  | inactive
O=C(O)P(=O)(O)Oc1ccc2c(c1)CCC2 | Active | 
CCOC(=O)c1ccc(OC(=O)P(=O)(O)O)cc1 | Active | 
O=C(OC1CCCCC1)P(=O)(O)O |  | inactive
Cc1ccc(OP(=O)(O)C(=O)Oc2ccccc2)cc1 | Active | 
COP(=O)(OC)C(=O)OC1CCCCC1 |  | inactive
O=C(Oc1ccccc1)P(=O)(Oc1ccccc1)Oc1ccccc1 | Active | 
COP(=O)(OC)C(=O)Oc1ccc([N+](=O)[O-])cc1 |  | inactive
COP(=O)(OC)C(=O)Oc1ccc(C)cc1 |  | inactive
CC(C)OC(=O)P(=O)(O)O |  | inactive
CCOC(=O)c1ccc(OC(=O)P(=O)(OCC)OCC)cc1 |  | inactive
CCOP(=O)(O)C(=O)Oc1ccc(Cl)cc1 | Active | 
CCOP(=O)(Oc1c(C)cccc1C)C(=O)OC (configuration not stated) |  | inactive
COP(=O)(OC)C(=O)Oc1ccccc1 |  | inactive
O=C(O)P(=O)(O)OC12CC3CC(CC(C3)C1)C2 | Active | 
CCCCOP(=O)(O)C(=O)OC |  | inactive

SMILES | Effect [1] | Effect [2]
O=C(OCc1ccccc1)P(=O)(O)O |  | inactive
O=C(Oc1ccc(Cl)cc1)P(=O)(O)O | Active | 
O=C(O)P(=O)(O)O | Active | 
COC(=O)P(=O)(OC(C)C)OC(C)C |  | inactive
COP(=O)(O)C(=O)Oc1ccccc1 | Active | 
Cc1cccc(C)c1OP(=O)(O)C(=O)O | Active | 
COP(=O)(OC)C(=O)Oc1ccc(Cl)c(Cl)c1 |  | inactive
CCOC(=O)P(=O)(O)OCC |  | inactive
COP(=O)(OC)C(=O)OCC1CCCC1 |  | inactive
COC(=O)P(=O)(O)Oc1c(C)cccc1C |  | inactive
CCOP(=O)(OCC)C(=O)Oc1ccc(Cl)cc1 |  | inactive
CCOP(=O)(O)C(=O)O | Active | 
CCOP(=O)(Oc1ccc(OC)cc1)C(=O)Oc1ccccc1 (configuration not stated) | Active | 
COP(=O)(OC)C(=O)OCc1ccccc1 |  | inactive
CCOP(=O)(Oc1ccc2c(c1)CCC2)C(=O)OC (configuration not stated) |  | inactive
CCCCOC(=O)P(=O)(O)O |  | inactive
CCCCOC(=O)P(=O)(OC)OC |  | inactive
COC(=O)P(=O)(O)Oc1ccc2c(c1)CCC2 |  | inactive
CCOC(=O)P(=O)(O)O |  | inactive
